Target: TNF-α converting enzyme (TACE) (Homo sapiens, UniProt P78536)
Test: TACE inhibition (fluorescent peptidyl substrate)
Format: biochemical
Details: IC 50 nM (In Vitro Inhibition of TACE), Table 15

TNF-α converting enzyme (TACE), sequence (P78536 215-824, species assumed): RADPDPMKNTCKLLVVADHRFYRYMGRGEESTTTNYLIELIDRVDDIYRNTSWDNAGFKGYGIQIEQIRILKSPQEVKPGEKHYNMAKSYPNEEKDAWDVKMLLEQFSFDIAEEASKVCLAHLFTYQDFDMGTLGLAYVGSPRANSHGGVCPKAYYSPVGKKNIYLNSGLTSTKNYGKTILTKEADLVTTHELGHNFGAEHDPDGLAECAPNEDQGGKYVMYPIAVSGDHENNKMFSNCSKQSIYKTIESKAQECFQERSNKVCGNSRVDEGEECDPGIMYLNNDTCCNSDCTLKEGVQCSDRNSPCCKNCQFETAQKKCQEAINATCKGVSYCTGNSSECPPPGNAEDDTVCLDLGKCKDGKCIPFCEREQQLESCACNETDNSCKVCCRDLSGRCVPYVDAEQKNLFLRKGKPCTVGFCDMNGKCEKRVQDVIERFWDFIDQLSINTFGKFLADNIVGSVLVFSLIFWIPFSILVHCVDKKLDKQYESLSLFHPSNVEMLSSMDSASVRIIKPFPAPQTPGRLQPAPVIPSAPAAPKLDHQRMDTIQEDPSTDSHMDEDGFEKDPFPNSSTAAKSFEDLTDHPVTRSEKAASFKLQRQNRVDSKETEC

Row | Compound | IC50
1 | CC#CCOc1ccc(S(=O)(=O)N[C@H](CCCCNC(=O)c2ccc(Br)cc2)C(=O)NO)cc1 [Example 351, 4-Bromo-N-[(5R)-5-({[4-(but-2-ynyloxy)phenyl]sulfonyl}amino)-6-(hydroxyamino)-6-oxohexyl]benzamide] | 9.57 nM
2 | CC#CCOc1ccc(S(=O)(=O)N[C@H](CCCCNC(=O)c2sccc2Cl)C(=O)NO)cc1 [Example 352, N-[(5R)-5-({[4-(But-2-ynyloxy)phenyl]sulfonyl}amino)-6-(hydroxyamino)-6-oxohexyl]-3-chlorothiophene-2-carboxamide] | 4.96 nM
3 | CC#CCOc1ccc(S(=O)(=O)N[C@H](CCCCNC(=O)c2ccc(Cl)cc2)C(=O)NO)cc1 [Example 353, N-[(5R)-5-({[4-(But-2-ynyloxy)phenyl]sulfonyl}amino)-6-(hydroxyamino)-6-oxohexyl]-4-chlorobenzamide] | 6.1 nM
4 | CC#CCOc1ccc(S(=O)(=O)N[C@H](CCCCNC(=O)C2CCCCC2)C(=O)NO)cc1 [Example 354, N-[(5R)-5-({[4-(But-2-ynyloxy)phenyl]sulfonyl}amino)-6-(hydroxyamino)-6-oxohexyl]cyclohexanecarboxamide] | 5.89 nM
5 | CC#CCOc1ccc(S(=O)(=O)N[C@H](CCCCNC(=O)Cc2ccc(Cl)c(Cl)c2)C(=O)NO)cc1 [Example 355, (2R)-2-({[4-(But-2-ynyloxy)phenyl]sulfonyl}amino)-6-{[2-(3,4-dichlorophenyl)acetyl]amino}-N-hydroxyhexanamide] | 12.4 nM
6 | CC#CCOc1ccc(S(=O)(=O)N[C@H](CCCCNC(=O)c2cc(C)oc2C)C(=O)NO)cc1 [Example 356, N-[(5R)-5-({[4-(But-2-ynyloxy)phenyl]sulfonyl}amino)-6-(hydroxyamino)-6-oxohexyl]-2,5-dimethyl-3-furamide] | 9.36 nM
7 | CC#CCOc1ccc(S(=O)(=O)N[C@H](CCCCNC(=O)c2c(C)noc2C)C(=O)NO)cc1 [Example 357, N-[(5R)-5-({[4-(But-2-ynyloxy)phenyl]sulfonyl}amino)-6-(hydroxyamino)-6-oxohexyl]-3,5-dimethylisoxazole-4-carboxamide] | 14.1 nM
8 | CC#CCOc1ccc(S(=O)(=O)N[C@H](CCCCNC(=O)CCc2ccccc2)C(=O)NO)cc1 [Example 358, (2R)-2-({[4-(But-2-ynyloxy)phenyl]sulfonyl}amino)-N-hydroxy-6-[(3-phenylpropanoyl)amino]hexanamide] | 8.84 nM
9 | CC#CCOc1ccc(S(=O)(=O)N[C@H](CCCCNC(=O)c2ccncc2)C(=O)NO)cc1 [Example 359, N-[(5R)-5-({[4-(But-2-ynyloxy)phenyl]sulfonyl}amino)-6-(hydroxyamino)-6-oxohexyl]isonicotinamide] | 9.28 nM
10 | CC#CCOc1ccc(S(=O)(=O)N[C@H](CCCCNC(=O)c2ccccc2OC)C(=O)NO)cc1 [Example 360, N-[(5R)-5-({[4-(But-2-ynyloxy)phenyl]sulfonyl}amino)-6-(hydroxyamino)-6-oxohexyl]-2-methoxybenzamide] | 4.97 nM
11 | CC#CCOc1ccc(S(=O)(=O)N[C@H](CCCCNC(=O)c2ccc(OC)cc2)C(=O)NO)cc1 [Example 361, N-[(5R)-5-({[4-(But-2-ynyloxy)phenyl]sulfonyl}amino)-6-(hydroxyamino)-6-oxohexyl]-4-methoxybenzamide] | 6.32 nM
12 | CC#CCOc1ccc(S(=O)(=O)N[C@H](CCCCNC(=O)Cc2ccc([N+](=O)[O-])cc2)C(=O)NO)cc1 [Example 362, (2R)-2-({[4-(But-2-ynyloxy)phenyl]sulfonyl}amino)-N-hydroxy-6-{[2-(4-nitrophenyl)acetyl]amino}hexanamide] | 4.55 nM
13 | CC#CCOc1ccc(S(=O)(=O)N[C@H](CCCCNC(=O)Cc2ccccc2)C(=O)NO)cc1 [Example 363, (2R)-2-({[4-(But-2-ynyloxy)phenyl]sulfonyl}amino)-N-hydroxy-6-[(2-phenylacetyl)amino]hexanamide] | 3.39 nM

Source: patent US6716833B2, “Acetylenic α-amino acid-based sulfonamide hydroxamic acid tace inhibitors” (priority 1999, dated 2004)
